Assays:
Experiment in all cases: relative viability (nuclei count vs DMSO), 5 days (fraction); higher = more cells survive
[1] = compound: CO[C@H]1C[C@@H]2CC[C@@H](C)[C@@](O)(O2)C(=O)C(=O)N2CCCC[C@H]2C(=O)O[C@H]([C@H](C)C[C@@H]2CC[C@@H](OCCO)[C@H](OC)C2)CC(=O)[C@H](C)/C=C(\C)[C@@H](O)[C@@H](OC)C(=O)[C@H](C)C[C@H](C)/C=C/C=C/C=C/1C [Everolimus] + COc1cc2c(Oc3ccc(NC(=O)C4(C(=O)Nc5ccc(F)cc5)CC4)cc3F)ccnc2cc1OCCCN1CCOCC1 [Foretinib] (partner 0.25 µM)
Procedure, shortened: (§1)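 Values are medians from duplicate plates. Each reflects relative viability, defined as the nuclei count of treated wells over that of vehicle wells. Lung cancer cell lines in 1536-well plates were pin-tool dosed one day after seeding with one drug alone or with a fixed anchor-drug dose plus five library-drug doses (not always all listed) in √10 steps, then fixed, stained and imaged at 4× after 5 days.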

[2] = compound: CO[C@H]1C[C@@H]2CC[C@@H](C)[C@@](O)(O2)C(=O)C(=O)N2CCCC[C@H]2C(=O)O[C@H]([C@H](C)C[C@@H]2CC[C@@H](OCCO)[C@H](OC)C2)CC(=O)[C@H](C)/C=C(\C)[C@@H](O)[C@@H](OC)C(=O)[C@H](C)C[C@H](C)/C=C/C=C/C=C/1C [Everolimus] + Cc1cc(Nc2cc(N3CCN(C)CC3)nc(Sc3ccc(NC(=O)C4CC4)cc3)n2)n[nH]1 [Tozasertib] (partner 0.1 µM)
Procedure, shortened: as §1

[3] = compound: CO[C@H]1C[C@@H]2CC[C@@H](C)[C@@](O)(O2)C(=O)C(=O)N2CCCC[C@H]2C(=O)O[C@H]([C@H](C)C[C@@H]2CC[C@@H](OCCO)[C@H](OC)C2)CC(=O)[C@H](C)/C=C(\C)[C@@H](O)[C@@H](OC)C(=O)[C@H](C)C[C@H](C)/C=C/C=C/C=C/1C [Everolimus] + NC(=O)Nc1cc(-c2cccc(F)c2)sc1C(=O)N[C@H]1CCCNC1 [AZD7762] (partner 0.2 µM)
Procedure, shortened: as §1

[4] = compound: CO[C@H]1C[C@@H]2CC[C@@H](C)[C@@](O)(O2)C(=O)C(=O)N2CCCC[C@H]2C(=O)O[C@H]([C@H](C)C[C@@H]2CC[C@@H](OCCO)[C@H](OC)C2)CC(=O)[C@H](C)/C=C(\C)[C@@H](O)[C@@H](OC)C(=O)[C@H](C)C[C@H](C)/C=C/C=C/C=C/1C [Everolimus] + CCNC(=O)c1noc(-c2cc(C(C)C)c(O)cc2O)c1-c1ccc(CN2CCOCC2)cc1 [Luminespib] (partner 0.01 µM)
Procedure, shortened: as §1

Row | Cell Line | relative viability ([1]; first compound 0.01 µM) | relative viability ([1]; first compound 0.03162 µM) | relative viability ([1]; first compound 0.1 µM) | relative viability ([1]; first compound 0.3162 µM) | relative viability ([1]; first compound 1 µM) | relative viability ([2]; first compound 0.01 µM) | relative viability ([2]; first compound 0.03162 µM) | relative viability ([2]; first compound 0.1 µM) | relative viability ([2]; first compound 0.3162 µM) | relative viability ([2]; first compound 1 µM) | relative viability ([3]; first compound 0.01 µM) | relative viability ([3]; first compound 0.03162 µM) | relative viability ([3]; first compound 0.1 µM) | relative viability ([3]; first compound 0.3162 µM) | relative viability ([3]; first compound 1 µM) | relative viability ([4]; first compound 0.01 µM) | relative viability ([4]; first compound 0.03162 µM) | relative viability ([4]; first compound 0.1 µM) | relative viability ([4]; first compound 0.3162 µM) | relative viability ([4]; first compound 1 µM)
1 | HCC-78 | 0.496 | 0.477 | 0.447 | 0.51 | 0.391 | 0.361 | 0.428 | 0.406 | 0.426 | 0.454 | 0.455 | 0.427 | 0.361 | 0.553 | 0.384 |  |  |  |  | 
2 | HCC-366 | 0.794 | 0.888 | 0.873 | 0.866 | 0.869 | 0.097 | 0.102 | 0.347 | 0.0539 | 0.0447 | 0.371 | 0.245 | 0.334 | 0.29 | 0.209 |  |  |  |  | 
3 | HCC-827 | 0.929 | 0.982 | 0.906 | 0.828 | 0.771 | 0.451 | 0.417 | 0.404 | 0.378 | 0.366 | 0.188 | 0.164 | 0.185 | 0.193 | 0.163 | 0.346 | 0.33 | 0.204 | 0.203 | 0.199
4 | HOP-62 | 0.903 | 0.835 | 0.776 | 0.731 | 0.779 | 0.441 | 0.362 | 0.363 | 0.41 | 0.264 | 0.289 | 0.346 | 0.412 | 0.402 | 0.37 | 0.918 | 0.853 | 0.782 | 0.919 | 0.926
5 | IA-LM | 0.927 | 0.547 | 0.476 | 0.595 | 0.42 |  |  |  |  |  |  |  |  |  |  |  |  |  |  | 
6 | NCI-H520 | 0.478 | 0.335 | 0.321 | 0.434 | 0.349 | 0.271 | 0.28 | 0.264 | 0.222 | 0.239 |  |  |  |  |  | 0.23 | 0.237 | 0.215 | 0.235 | 0.206
7 | NCI-H522 |  |  |  |  |  | 0.584 | 0.432 | 0.409 | 0.505 | 0.458 | 0.622 | 0.64 | 0.579 | 0.651 | 0.686 | 0.841 | 0.631 | 0.767 | 0.738 | 0.811
8 | NCI-H661 | 0.876 | 0.702 | 0.738 | 0.73 | 0.664 | 0.363 | 0.368 | 0.391 | 0.359 | 0.376 |  |  |  |  |  | 0.821 | 0.767 | 0.659 | 0.688 | 0.534
9 | NCI-H1299 | 1.06 | 1.21 | 0.634 | 1.07 | 1.05 |  |  |  |  |  |  |  |  |  |  |  |  |  |  | 
10 | NCI-H1563 | 0.721 | 0.768 | 0.685 | 0.712 | 0.562 |  |  |  |  |  |  |  |  |  |  | 0.54 | 0.479 | 0.548 | 0.501 | 0.496
11 | NCI-H1648 |  |  |  |  |  | 0.41 | 0.776 | 0.585 | 0.549 | 0.388 | 0.622 | 0.634 | 0.631 | 0.735 | 1.02 |  |  |  |  | 

Reference: the supplement of paper PMC10307832
